From publication PMC10840383, “Clinical features, functional consequences, and rescue pharmacology of missense GRID1 and GRID2 human variants” (Human Molecular Genetics, 2023)
Positions count from the first letter of the chain named.

Assays:
Type in all cases: cell-based
GluD2-T649A = target: T1, GluD2-T649A (Rattus norvegicus, UniProt Q63226, T649A); experiment: TEVC of constitutive current, Xenopus oocytes expressing GluD2-T649A; settings: for IC50: inhibitors of constitutively active GluD2 current, read-out: T649A IC50
T1 construct: expressed in transfected cells; host or cells: Xenopus laevis oocytes injected with cRNA
T1 sequence (Q63226 24-1007 T649A): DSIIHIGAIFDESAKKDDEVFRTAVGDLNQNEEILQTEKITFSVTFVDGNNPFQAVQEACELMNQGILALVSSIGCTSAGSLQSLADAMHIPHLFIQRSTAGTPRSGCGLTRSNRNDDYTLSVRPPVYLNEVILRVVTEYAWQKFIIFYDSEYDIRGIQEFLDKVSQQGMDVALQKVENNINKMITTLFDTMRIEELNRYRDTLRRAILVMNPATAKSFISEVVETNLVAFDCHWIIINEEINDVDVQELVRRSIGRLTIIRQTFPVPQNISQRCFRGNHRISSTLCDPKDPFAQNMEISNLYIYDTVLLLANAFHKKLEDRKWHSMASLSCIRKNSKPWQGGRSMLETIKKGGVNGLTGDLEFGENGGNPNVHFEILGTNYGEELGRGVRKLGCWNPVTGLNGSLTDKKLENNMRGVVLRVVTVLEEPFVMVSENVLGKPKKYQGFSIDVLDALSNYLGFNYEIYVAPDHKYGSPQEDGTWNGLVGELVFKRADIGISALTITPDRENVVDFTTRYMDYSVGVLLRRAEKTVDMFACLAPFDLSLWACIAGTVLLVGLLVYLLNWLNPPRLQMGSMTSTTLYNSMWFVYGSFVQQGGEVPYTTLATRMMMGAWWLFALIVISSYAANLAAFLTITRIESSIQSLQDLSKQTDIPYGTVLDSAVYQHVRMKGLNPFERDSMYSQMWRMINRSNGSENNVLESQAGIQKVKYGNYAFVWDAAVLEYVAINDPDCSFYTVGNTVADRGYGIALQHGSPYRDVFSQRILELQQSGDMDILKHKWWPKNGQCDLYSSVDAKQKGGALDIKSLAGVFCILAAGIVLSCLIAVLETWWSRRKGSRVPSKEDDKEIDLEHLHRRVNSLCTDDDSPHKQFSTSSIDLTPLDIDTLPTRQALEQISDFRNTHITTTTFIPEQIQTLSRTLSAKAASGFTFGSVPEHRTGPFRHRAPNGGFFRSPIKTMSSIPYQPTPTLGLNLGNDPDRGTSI

GluD2-A654T = target: T2, GluD2-A654T (Rattus norvegicus, UniProt Q63226, A654T); experiment: TEVC of constitutive current, Xenopus oocytes expressing GluD2-A654T (lurcher); settings: for IC50: inhibitors of constitutively active GluD2 current, read-out: A654T IC50
T2 construct: expressed in transfected cells; host or cells: Xenopus laevis oocytes injected with cRNA
T2 sequence (Q63226 24-1007 A654T): T1 sequence (Q63226 24-1007 T649A) with A626T, A631T

[1] = test system: constitutively active GluD1 and GluD2 receptor variants; experiment: Inhibition of constitutive currents of GluD variants by channel blockers, Xenopus oocytes
Protocol: Xenopus laevis oocytes were prepared from ovaries purchased from Xenopus 1 (Dexter, MI) as previously described, [68] and incubated at 16°C in culture Barth’s solution (in mM) 88 NaCl, 2.4 NaHCO3, 1 KCl, 0.33 Ca(NO3)2, 0.41 CaCl2, 0.82 MgSO4, 10 HEPES, pH 7.4 with NaOH, supplemented with 1 U/ml penicillin and 1 μg/ml streptomycin. Oocytes were injected with approximately 5–40 ng RNA per oocyte and then incubated at 16–19°C for 1–3 days in culture Barth’s solution. The levels of GluD2-A654D and GluD2-A654T cRNA were reduced to 1.5 ng and 2.5 ng, respectively, due to oocyte toxicity. Two-electrode voltage clamp (TEVC) recordings were performed as previously described. Unless otherwise specified, extracellular solution contained (in mM) 90 NaCl, 3 KCl, 0.5 BaCl2, 0.01 EDTA, 10 HEPES, and was brought to pH 7.4 with NaOH. The oocytes were placed in a dual track recording chamber and gravity perfused with solution exchange controlled via a computer-driven 8-valve positioner (Digital MVP Valve). […] Recording electrodes were filled with 0.3 M KCl, and currents were recorded with membrane voltage held at −40 mV. To establish constitutive activity of recombinant receptors when compared to wild type receptors, we used the oocyte recording solution described above, but with 90 mM N-methyl-D-glucamine (NMDG) chloride replacing 90 mM NaCl. […] In addition to establishing constitutive activity, 90 mM NMDG was used in recording protocols with drug treatment to obtain the percent maximum theoretical inhibition of a compound, or to determine the relative degree of drug potentiation. For Ca^2+ concentration-response curves, choline chloride was used to maintain equimolar concentrations of Cl^− ions in the extracellular solution across the changing concentrations of calcium chloride. All compounds used in this study for concentration-response oocyte recordings were dissolved in deionized water as 50–100 mM stock solutions. In some rescue pharmacology experiments, we substituted 1 mM CaCl2 for 0.5 mM BaCl2 to evaluate Ca^2+-dependent control of receptor responses.

Structure (SMILES) | Effect on constitutive current, in words (GluD2-T649A) | Effect on constitutive current, in words (GluD2-A654T) | Inhibition of constitutive currents, in words [1] | Fold-shift (IC50 A654T/IC50 T649A) (GluD2-T649A) | IC50 (GluD2-T649A) [µM] | IC50 (GluD2-A654T) [µM]
NCC(=O)O [Glycine] | inhibited | inhibited |  |  |  | 
CNC1(c2ccccc2Cl)CCCCC1=O (stereo not shown) [ketamine] |  |  | memantine inhibits GluD receptor constitutively active currents more effectively than ketamine |  |  | 
C[C@@H](N)C(=O)O [D-Alanine, D-alanine] | inhibited | inhibited |  | 1.2 | 1300 | 1600
N[C@@H](CC(=O)O)C(=O)O [L-Aspartic Acid, L-aspartic acid] | inhibited | inhibited |  | 19 | 270 | 5000
